{"source": "patent US9877946B2", "about": "“Method for treating, managing, inhibiting, or preventing obesity” (RESEARCH & BUSINESS FOUNDATION SUNGKYUNKWAN UNIVERSITY, priority 2014, dated 2018)", "key": {"[1]": {"test_system": "UCP-1 expression in C3H10T1/2 cells", "experiment": "UCP-1 expression in differentiated C3H10T1/2 adipocytes, real-time PCR", "format": "cell-based, mouse", "experimental": "Differentiated C3H10T1/2 adipocytes were treated with the butein and the derivatives for 24 hours, and the expression levels of UCP-1 and PRDM4 were investigated using real-time PCR."}, "[2]": {"test_system": "PRDM4 expression in C3H10T1/2 cells", "experiment": "PRDM4 expression in differentiated C3H10T1/2 adipocytes, real-time PCR", "format": "cell-based, mouse", "conditions": "24 hours, FIG. 25", "experimental": "To confirm an anti-obesity effect of the butein derivative, changes in expression levels of UCP-1 and PRDM4 by treatment of the butein derivative (Formulas 1-1 to 1-8 and 1-10 to 1-14) were measured. Differentiated C3H10T1/2 adipocytes were treated with the butein and the derivatives for 24 hours, and the expression levels of UCP-1 and PRDM4 were investigated using real-time PCR."}, "[3]": {"test_system": "T37i cells (brown fat precursor cells)", "experiment": "Brown adipocyte marker expression in differentiated T37i cells, real-time PCR", "format": "cell-based", "conditions": "butein 5, 10 and 20 μM, 6 days, FIG. 2", "experimental": "To confirm an increase in number of brown adipocytes by butein treatment, brown fat precursor cells, T37i cells, were used. The T37i cells were cultured in a medium containing 5 μg/ml insulin and 1 nM triiodothyronine (T3) for 2 days, and then the differentiation into adipocytes using a medium containing 5 μg/ml insulin was induced for 6 to 8 days. The differentiation-induced adipocytes were treated with butein for 6 days by concentrations (5, 10 and 20 μM) and stained with Oil Red O, and then mRNA expression levels of PPARγ and aP2 related to the adipocyte differentiation and brown adipocyte markers, that is, UCP-1, PRDM16 and Cidea genes, were confirmed through real-time PCR."}, "[4]": {"test_system": "UCP-1 expression in MEF cells", "experiment": "UCP-1 expression in MEF cells", "format": "cell-based, mouse", "conditions": "DMSO-treated control, FIG. 4", "source_text": "An increase in expression level of UCP-1 by butein treatment in C3H10T1/2 cells was compared to those by treatment of sulfuretin, fisetin, resveratrol and genistein, which are known as materials having an influence on adipocytes, and the increase in expression level of UCP-1 by butein treatment in MEF cells was compared to a DMSO-treated group as a control."}, "[5]": {"test_system": "epididymal fat, subcutaneous fat and brown fat", "experiment": "Marker expression in adipose tissues of mice treated for 14 days, real-time PCR", "format": "in vivo", "conditions": "5 mg/kg abdominal injection, FIGS. 6 to 8", "experimental": "To examine activities of butein to increase the numbers of beige and brown adipocytes and inhibit white adipocytes in vivo, expression of markers in adipose tissues were measured after mice were treated with butein for 14 days. 6 mice were treated with 5 mg/kg of the butein through abdominal injection, and as a control, 6 mice were treated with only a solvent through abdominal injection. After 14 days, expression levels of markers for white fat and beige (brown) fat in epididymal fat, subcutaneous fat and brown fat were confirmed through real-time PCR."}, "[6]": {"test_system": "HFD obesity-induced C57BL6/J mice", "experiment": "HFD obesity-induced mice, comparison with PBS-treated group", "format": "in vivo", "experimental": "To confirm an anti-obesity effect of butein, obesity was induced in C57BL6/J mice by HFD, and the mice were treated with butein through abdominal injection. 7-week-old mice were adjusted for 1 week, fed with HFD (60% fat, purchased from Research Diet) for 8 weeks to induce obesity, and butein was treated daily at 5 mg/kg and 15 mg/kg into two groups of mice, each group having 7 mice. As controls, a normal diet food intake group (5 mice) and a group fed with HFD and treated with PBS (7 mice) were used. Increases in body weight during the treatment period and weights of various organs were compared, and after 8 weeks, a glucose tolerance test (GTT) and an insulin tolerance test (ITT) were performed in combination with histological and hematological analyses."}, "[7]": {"test_system": "HFD obesity-induced C57BL6/J mice", "experiment": "HFD obesity-induced mice, comparison with resveratrol-treated group", "format": "in vivo", "conditions": "for body weight compared to the control: 28-week-old mice", "experimental": "To confirm an anti-obesity effect of butein, obesity was induced to C57BL6/J mice by HFD, and changes in body weight according to butein treatment were confirmed. Specifically, 7-week-old mice were adjusted for 1 week, and fed with HFD (60% fat, purchased from Research Diet) for 12 weeks to induce obesity. Afterward, 30 mg/kg of butein was treated daily into 8 of the obesity-induced mice for 8 weeks. As controls, a PBS-treated group (7 mice) and a group (8 mice) treated with resveratrol, which is known to have an effect on preventing obesity, were used. After the 8-week treatment, increases in body weight were compared, and 8 weeks later, a GTT and a ITT were performed in combination with a hematological analysis."}, "PRDM4 gene": {"test_system": "PRDM4 gene", "experiment": "Microarray for gene inducing bioactivity of butein", "format": "cell-based"}, "[8]": {"conditions": "differentiated C3H10T1/2 adipocytes, 24 hours, FIG. 25"}, "[9]": {"conditions": "HFD 8 weeks, butein 5 and 15 mg/kg daily, vs HFD control"}}}
{"smiles": "O=C(/C=C/c1ccc(O)c(O)c1)c1ccc(O)cc1O", "note": "[Compound 1-1, butein]", "values": [{"measurement": "expression of UCP-1 compared to sulfuretin, fisetin, resveratrol and genistein", "setting": "[1]; C3H10T1/2 cells, FIG. 3", "result": "increased more than three times"}, {"measurement": "expression of UCP-1", "setting": "[1]; butein 5, 10 and 20 μM, 24 hours, FIG. 1", "result": "the expression of UCP-1 increased"}, {"measurement": "expression level of UCP-1", "setting": "[1]; [8]", "result": "significant increases"}, {"measurement": "expression level of UCP-1", "setting": "[1]; differentiated C3H10T1/2 cells, 24 hours, FIG. 5", "result": "specifically and considerably increased"}, {"measurement": "expression level of PRDM4", "setting": "[2]", "result": "significant increases"}, {"measurement": "expression of Cidea", "setting": "[3]", "result": "increased"}, {"measurement": "expression of PRDM16", "setting": "[3]", "result": "increased"}, {"measurement": "expression of UCP-1", "setting": "[3]", "result": "increased"}, {"measurement": "expression of UCP-1 compared to the control", "setting": "[4]", "result": "more than 10 times"}, {"measurement": "adipocyte markers PPARγ and aP2", "setting": "[5]", "result": "decreases"}, {"measurement": "brown adipocyte markers UCP-1, PRDM16 Cox8b and Cidea", "setting": "[5]", "result": "increases"}, {"measurement": "white adipocyte markers resistin and Nnmt", "setting": "[5]", "result": "decreases"}, {"measurement": "UCP-1, PRDM16, Cox8b, PGC-1α, CIDEA, COX7a and Dio2 specifically expressed in beige adipocytes", "setting": "[6]; 15 mg/kg of butein, 8 weeks", "result": "increased"}, {"measurement": "glucose-insulin metabolism (GTT and ITT)", "setting": "[6]; 15 mg/kg of butein, 8 weeks", "result": "significantly improved"}, {"measurement": "body weight", "setting": "[6]; [9]", "result": "tendency to concentration-dependent decreases"}, {"measurement": "weights of adipose tissues of livers and internal organs", "setting": "[6]; [9]", "result": "tendency to concentration-dependent decreases"}, {"measurement": "hematological analysis: glucose, cholesterol, neutral fat, HDL, LDL and a fatty acid", "setting": "[6]; high dosage of butein", "result": "significant differences"}, {"measurement": "effect of decreasing body weight compared to the resveratrol-treated group", "setting": "[7]; 30 mg/kg daily for 8 weeks after 12 weeks HFD", "result": "considerably excellent effect of decreasing a body weight"}, {"measurement": "decrease in body weight compared to the PBS-treated group", "setting": "[7]; 30 mg/kg daily for 8 weeks after 12 weeks HFD, FIG. 20", "result": "approximately 10%"}, {"measurement": "body weight compared to the control", "setting": "[7]", "result": "considerable decrease"}, {"measurement": "glucose-insulin metabolism (GTT and ITT)", "setting": "[7]; HFD-But group, FIG. 21", "result": "considerably improved"}, {"measurement": "rectal temperature", "setting": "[7]; HFD-But group, FIG. 21", "result": "increased"}, {"measurement": "food intake", "setting": "[7]; between three groups, FIG. 20C", "result": "no differences"}, {"measurement": "PRDM4 gene expression", "setting": "PRDM4 gene", "result": "increased in expression by more than approximately twice"}]}
{"smiles": "COc1cc(C2CC(=O)c3ccc(O)cc3O2)ccc1F", "note": "(stereo not drawn) [Compound 1-11, 2-(4-fluoro-3-methoxyphenyl)-7-hydroxychroman-4-one]", "values": [{"measurement": "expression level of UCP-1 compared to the butein-treated group (BFI)", "setting": "[1]; [8]", "result": "considerably increased"}, {"measurement": "expression level of PRDM4 compared to the butein-treated group (BFI)", "setting": "[2]", "result": "considerably increased"}]}
{"smiles": "O=C(/C=C/c1ccc(O)c(O)c1)c1ccc(O)cc1", "note": "[Compound 1-12, (E)-3-(3,4-dihydroxyphenyl)-1-(4-hydroxyphenyl)prop-2-en-1-one]", "values": [{"measurement": "expression level of UCP-1 compared to the butein-treated group (BFI)", "setting": "[1]; [8]", "result": "considerably increased"}, {"measurement": "expression level of PRDM4 compared to the butein-treated group (BFI)", "setting": "[2]", "result": "considerably increased"}]}
{"smiles": "Oc1ccc(C=Cc2cc(O)cc(O)c2)cc1", "note": "[resveratrol, reference compound]", "values": [{"measurement": "body weight compared to the control", "setting": "[7]", "result": "no changes"}, {"measurement": "food intake", "setting": "[7]; mouse, in vivo", "result": "no differences"}]}
